From patent US6837977B1, “Capillary electrophoresis method for screening for affinity ligands using a detectable competitive ligand” (Cetek Corporation, priority 1999, dated 2005)
pKd: −log10 of the molar value.

Tests used:
thrombin [1] = molecular target: T1, thrombin (Homo sapiens, UniProt P00734); conditions: binding to thrombin; stated for known ligands; cited from earlier work
thrombin [2] = molecular target: T1, thrombin; assay: competitive-binding capillary electrophoresis screening with fluorescently labeled competitive ligand (FCL); conditions: for FCL/TG complex peak: FIG. 1
Method: Also prepared is 100 nM of a fluorescently labeled, tight-binding competitive ligand, single-stranded (ss) DNA oligonucleotide 5′-fluorescein-GGTTGGTGTGGTTGG-3′ (Kd=3×10^−9 M; hereinafter “FCL”). The mixture of target and candidate ligand (TG/LG) is first injected into the CE instrument for about ten (10) seconds to give a first plug, followed by a 10-second injection of FCL as the second plug.
Voltage of about 20 kV is applied to initiate electrophoresis, and the unbound competitive ligand (FCL) and bound FCL/TG complex peaks are monitored during CE by means of laser-induced fluorescence and a fluorescence detector positioned at a detection point along the capillary.
Here the thrombin target (TG) is incubated, prior to CE, for five minutes with samples containing hirugen and hirulog-1 at different concentrations. Each of these target/sample mixtures is subjected to a CE screening run, as follows. A plug of target/sample mixture is pressure-injected into the CE instrument for 10 seconds to give a first-injected plug. A second injection plug of 100 nM FCL is then injected for 10 seconds, and then voltage of about 20 kV is applied to start electrophoresis. The CE migration of the FCL and FCL/TG complex are monitored by way of laser-induced fluorescence. Again, the FCL has a higher electrophoretic mobility than the TG, so that the unbound FCL peak appears before that of the FCL/TG complex (see FIG. 2).

Row | Substance | pKd (thrombin [1]) | FCL/TG complex peak (thrombin [2]; 50 nM hirulog-1 in sample, equivalent to 50 nM thrombin, 100 nM FCL) | FCL/TG peak (thrombin [2]; hirulog-1 in samples also containing hirugen, 100 nM FCL, FIG. 2) | FCL/TG complex peak (thrombin [2]; increasing concentrations of hirulog-1, 50 nM thrombin pre-incubated 5 min, 100 nM FCL, 20 kV) | molar excess of weak-binding hirugen at which the hirulog-1 signal is detectable (thrombin [2]; samples containing hirugen and hirulog-1, FIG. 2) | change in competitive ligand's (FCL's) CE profile (thrombin [2]; pre-incubation of thrombin with 10,000 nM hirugen, 100 nM FCL, FIG. 2)
1 | 5′-fluorescein-GGTTGGTGTGGTTGG-3′ [FCL] | 8.52 |  |  |  |  | 
2 | D-Phe-Pro-Arg-Pro-(Gly)4-Asn-Gly-Asp-Phe-Glu-Glu-Ile-Pro-Glu-Glu-Tyr-Leu [hirulog-1] | ~8.70 | complete disappearance | decrease | reduced | up to 1,000 fold | 
3 | Gly-54-Leu-65 carboxyterminal dodecapeptide of hirudin with sulfated tyrosine [hirugen] | 6.82 |  |  |  |  | no difference
